# Test results: patent US11524010B2, “Substituted quinazoline sulfonamides as thioredoxin interacting protein (TXNIP) inhibitors” (SOUTHERN RESEARCH INSTITUTE, priority 2017, dated 2022)
# Entries after “also recorded” stand apart in the source; their conditions may differ.
# Legend:
# INS-1 cells = assay: INS-1 cell viability (Cell Titer-Glo, ATP); type: cell-based, Rat; conditions: 72 hrs treatment, hydrochloride
# How it was run: (§1)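 Cells seeded at 4.5×10^4 or 3.5×10^4 per well, incubated overnight at 37° C, 5% CO2, then treated with compounds for 24 hrs or 72 hrs respectively. Viability taken as ATP content by Cell Titer-Glo luminescence.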
# alpha TC1-6 cells = assay: Glucagon secretion of alpha TC1-6 cells; type: cell-based; conditions: incubation of alpha TC1-6 cells with compound
# TXNIP [1] = assay: Inhibition of glucose-induced endogenous TXNIP expression in INS-1 cells (qRT-PCR); type: cell-based, Rat; conditions: 25 mM glucose
# How it was run: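 Rat INS-1 cells were pre-cultured 24 h at 5 mM glucose, then exposed 24 h to 25 mM glucose ± compound. TXNIP mRNA was measured by one-step SYBR Green qRT-PCR and normalized to 18S rRNA (2^−ΔΔCT). % inhibition was fitted to a 4-parameter logistic for IC50.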
# STZ-diabetic mice = assay: Multiple low-dose STZ-induced diabetes in mice; type: in vivo
# Experimental: After having been rendered overtly diabetic by multiple low-dose STZ injections, mice received compound #11a by gavage at a dose of 100 mg/kg b.i.d or 30 mg/kg b.i.d. or received a vehicle control.
# wild-type mice = assay: Oral administration to wild-type mice (glucose, glucagon, hepatic glucose production, lipids); type: in vivo
# Experimental: Compound #11a was administered for three weeks in the drinking water of wild-type mice at about 100 mg/kg/d.
# Further studies of hepatic glucose production and whole body glucose turnover, i.e., peripheral glucose uptake into muscle and adipose tissue, were performed using hyperinsulinemic-euglycemic clamp studies.
# db/db mice = assay: Obese diabetic db/db mice (Type 2 diabetes model); type: in vivo; conditions: oral, 4 weeks
# Experimental: Obese, insulin-resistant and diabetic, leptin receptor-deficient db/db mice were administered compound #11a as described above for 4 weeks. […] In addition, they can lower liver and serum lipid levels
# TXNIP [2] = assay: TXNIP expression in isolated primary human islets; type: cell-based
# Experimental: (§2) Isolated primary human islets were cultured in the presence or absence of compound #11 (Table 1).
# primary human islets = assay: Cytokine-induced β-cell apoptosis in primary human islets; type: cell-based; conditions: Type 1 diabetes associated cytokines
# Experimental: as §2
# [3] = INS-1 cell viability (Cell Titer-Glo, ATP); type: cell-based, Rat; conditions: rat, INS-1 cells, 72 hrs treatment
# How it was run: as §1
# [4] = about 100 mg/kg/d in drinking water, three weeks
# [5] = vs untreated db/db, hydrochloride
smiles,measurement,setting,value
"CS(=O)(=O)NCC1CCCN(c2ncnc3ccc(C(F)(F)F)cc23)C1.Cl (centres unmarked) [Compound 11a, N-((1-(6-(trifluoromethyl)quinazolin-4-yl)piperidin-3-yl)methyl)methanesulfonamide hydrochloride]",CC50,INS-1 cells,> 100 µM
same,glucagon secretion,alpha TC1-6 cells,decreased
same,TXNIP % Inhibition at 1.5 μM,"TXNIP [1]; 1.5 μM compound, 24 hrs",35%
same,TXNIP % Inhibition at 12.5 μM,"TXNIP [1]; 12.5 μM compound, 24 hrs",57%
same,blood glucose levels,"STZ-diabetic mice; STZ (day 1-5) wild-type mice, oral compound day 5-15, vs untreated STZ mice",significantly lower
same,body weight,"STZ-diabetic mice; STZ-treated mice, oral 100 mg/kg/d, hydrochloride, 100 mg/kg/day",no detrimental effect; also recorded: maintained a normal body weight
same,detrimental effects or abnormalities,"STZ-diabetic mice; STZ-treated mice, oral 100 mg/kg/d, throughout experiment, sacrifice and dissection",no detrimental effects or abnormalities
same,protection against diabetes,STZ-diabetic mice; oral 100 mg/kg/d starting after multiple low-dose STZ regimen,effectively protected
same,blood glucose levels,"STZ-diabetic mice; overtly diabetic STZ mice, gavage 100 mg/kg b.i.d or 30 mg/kg b.i.d., vs vehicle",significantly decreased in a dose-dependent manner
same,blood glucose levels,wild-type mice; [4],small but significant decrease
same,body weight,wild-type mice; [4],no change
same,gross abnormalities in organs upon sacrifice,wild-type mice; [4],no gross abnormalities
same,fasting serum glucagon levels,"wild-type mice; about 100 mg/kg/d in drinking water, vs control",decreased
same,basal hepatic glucose production,"wild-type mice; hyperinsulinemic-euglycemic clamp, vs control",significant decrease
same,liver triglyceride levels,"wild-type mice; oral, vs control",two-fold lower
same,serum non-esterified fatty acids,"wild-type mice; oral, vs control",significantly lower
same,serum triglycerides,"wild-type mice; oral, vs control",significantly lower
same,fasting serum glucagon levels,db/db mice,significant decrease
same,blood glucose levels,db/db mice; [5],significantly lower; also recorded: decreased significantly
same,body weight,db/db mice; [5],no significant effect; also recorded: no difference
"CS(=O)(=O)NCC1CCCN(c2ncnc3ccc(C(F)(F)F)cc23)C1 (centres unmarked) [Compound 11, N-((1-(6-(trifluoromethyl)quinazolin-4-yl)piperidin-3-yl)methyl)methanesulfonamide]",pro-inflammatory cytokine-induced TXNIP expression,TXNIP [2]; Type 1 diabetes associated cytokines,protected
same,glucose-induced TXNIP expression,"TXNIP [2]; high glucose, vs DMSO control",inhibition of TXNIP expression; also recorded: specifically inhibited
same,cytokine-induced β-cell apoptosis / death,primary human islets,inhibits; also recorded: protected
same,CC50 at 72 h,[3],56 µM
same,inhibition at 1.5 µM,"TXNIP [1]; Rattus norvegicus, INS1, 24 h, 1.5 μM compound",45%
same,inhibition at 12.5 µM,"TXNIP [1]; Rattus norvegicus, INS1, 24 h, 12.5 μM compound",53%
